One compound from patent US5459236A, “Vasoactive vasotocin derivatives” (Ferring AB, priority 1990, dated 1995) can be followed below.

Experiment [1] relates to anaesthetised Sprague Dawley rats, previously treated with dibenamine. The experiment is described as follows: Blood pressure (pressor) test, 4-point test against standard AVP. Format: in vivo. The text has this:
(§1) Vasotocin derivatives according to the invention have been tested for potency of both blood pressure and antidiuretic activity in a so-called 4-point test, i.e. the activity of the test substances has been related to a standard preparation (AVP=argininevasopressin), and the effects of two dose levels for each substance have been analysed. In addition, three pressor-specific VT derivatives according to our previous application SE 8703855-0 have been tested for a comparison, namely 1-Hmp-2-Phe-S-Orn-VT (compound 2 in Table 1), 1-Hmp-2-Phe-S-Dab-VT (compound 3 in Table 1), and 1-Hmp-2-Phe-S-Dab(Ala)-VT (compound 5 in Table 1).
Blood pressure tests were carried out on anaesthetised Sprague Dawley rats (about 250 g), previously treated with dibenamine (Dekanski, J., 1952. Br. J. Pharmacol. 7, 567). Maximal blood pressure increase after intravenous injections of peptide was used as a measure of the effect, expressed as intensity.
In addition to potency determination based-on effect intensity, a measure of the length of the effect has been stated (index of persistence (I.P.), Pliska, V., 1966. Arzheim. Forech. 16, 886). This dimensionless factor is a measure of the effect duration of the respective analog in relation to the standard AVP.
(§2) In these two tests, a comparison was made between the effects of the respective derivative and the effect of a standard preparation, AVP, and potency was determined with the aid of a 4-point test and is indicated in international units per micromole (IU/μmole) (Sturmer, E., in Handbook of Expermimental Pharmacology, 1966, Vol 23, pp 130-189).
The specificity in respect of blood pressure is indicated by the ratio of potency blood pressure/potency antidiuresis (BP/AD).

Experiment [2] has as its system anaesthetised water-loaded Sprague Dawley rats. The experiment is described as follows: Antidiuretic potency test, 4-point test against standard AVP. The class given is in vivo. To be noted: maximal increase of urine conductivity after intravenous injection, 4-point test vs AVP.
Source text: as §1
Antidiuretic potency was determined with the aid of anaesthetised water-loaded Sprague Dawley rats (200 g) (Larsson, L. E., Lindeberg, G., Melin, P. and Pliska, V., 1978, J. Mad. Chem. 21, 353). Maximal increase of urine conductivity after intravenous injections was used as effect parameter.
as §2

Turning to `NC(=O)CC[C@@H]1NC(=O)[C@H](Cc2ccccc2)NC(=O)[C@H](Cc2ccc(O)cc2)NC(=O)[C@@H](N)CSSC[C@@H](C(=O)N2CCC[C@H]2C(=O)N[C@@H](CCCN=C(N)N)C(=O)NCC(N)=O)NC(=O)[C@H](CC(N)=O)NC1=O` [AVP, argininevasopressin], the “BLOOD PRESSURE BP I.P (measure of duration of effect), index of persistence” value in experiment [1] (dimensionless, effect duration in relation to the standard AVP, intravenous) turned out to be 1.0. In addition, the “BLOOD PRESSURE BP potency” value in experiment [1] (maximal blood pressure increase after intravenous injection, 4-point test vs AVP, anaesthetised rats) is reported as 614 ± 25 IU/μmole. Further, in experiment [1] (ratio of potency blood pressure/potency antidiuresis), the “BP/AD (measure of specificity)” value came to 1.0. The “ANTIDIURESIS AD potency” value in experiment [2] is reported as 620 ± 54 IU/μmole.
